According to US7622469B2, “2,4-diamino-1,3,5-triazine derivatives” (Hamari Chemicals, Ltd., priority 2002, dated 2009):

Tests used:
[1] = system: MRSA 97-115; experiment: Antibacterial activity test (MIC); format: cell-based, methicillin-resistant Staphylococcus aureus; conditions: Mueller-Hinton Broth, 37° C., 20 to 24 hours
In short: (§1)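 Broth dilution MIC per the Japanese Society of Chemotherapy standard method in Mueller-Hinton Broth. Strains were grown statically at 37° C for 16 to 20 hours and diluted in sterile saline to 10^5/ml. Compounds were dissolved in methanol and serially diluted twofold in medium, giving 100 μg/ml and 2^n-fold (n=−10 to 1).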

[2] = system: MRSA KM 97-108; experiment: Antibacterial activity test (MIC); format: cell-based, methicillin-resistant Staphylococcus aureus; conditions: Mueller-Hinton Broth, 37° C., 20 to 24 hours
In short: as §1

[3] = system: MRSA KM 97-53; experiment: Antibacterial activity test (MIC); format: cell-based, methicillin-resistant Staphylococcus aureus; conditions: Mueller-Hinton Broth, 37° C., 20 to 24 hours
In short: as §1

[4] = system: E. coli NIHJ JC-2; experiment: Antibacterial activity test (MIC); format: cell-based; conditions: Mueller-Hinton Broth, 37° C., 20 to 24 hours
In short: as §1

[5] = system: P. aeruginosa KM 97-5; experiment: Antibacterial activity test (MIC); format: cell-based; conditions: Mueller-Hinton Broth, 37° C., 20 to 24 hours
In short: as §1

[6] = system: P. aeruginosa No. 12; experiment: Antibacterial activity test (MIC); format: cell-based; conditions: Mueller-Hinton Broth, 37° C., 20 to 24 hours
In short: as §1

[7] = system: P. aeruginosa PAO-1; experiment: Antibacterial activity test (MIC); format: cell-based; conditions: Mueller-Hinton Broth, 37° C., 20 to 24 hours
In short: as §1

[8] = system: S. aureus 209PJC; experiment: Antibacterial activity test (MIC); format: cell-based; conditions: Mueller-Hinton Broth, 37° C., 20 to 24 hours
In short: as §1

[9] = system: VRE 49; experiment: Antibacterial activity test (MIC); format: cell-based, vancomycin-resistant enterococci; conditions: Mueller-Hinton Broth, 37° C., 20 to 24 hours
Description: Regarding compounds obtained in respective Working Examples, in order to investigate antibacterial activity, minimal inhibitory concentration (MIC) was determined according to a standard method of Japanese Society of Chemotherapy.
As a test bacterium, nine kinds of S. aureus 209PJC, MRSA 97-115, MRSA KM 97-53, MRSA KM97-108, VRE 49, E. coli NIHJ JC-2, P. aeruginosa PAO-1, P. aeruginosa No. 12, P. aeruginosa KM97-5 were used and, as a medium, Mueller-Hinton Broth (DIFCO) was used. One platinum loop of a test bacterium was inoculated into 20 ml of a medium, and static culture was carried out at 37° C. for 16 to 20 hours, and then each bacterium species was diluted with a sterilized physiological saline to 10^5/ml, which was used as a test bacterium solution.
Then, each compound was dissolved in methanol, subjected to ½ stepwise dilution with a medium to prepare a medium for measuring sensitivity, and each 2 ml was dispensed into a test tube. A compound concentration in a medium was adjusted to 100 μg/ml and its 2^n-fold (n=−10 to 1).
Numerical values in Tables represent MIC expressed in μg/ml unit.

[10] = system: E. coli NIHJ JC-2; experiment: Bactericidal activity test (MBC, phenol coefficient measuring method); format: cell-based
In short: (§2)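 MBC (μg/ml) is the lowest concentration showing no growth in at least two of three runs. Exposure of a 1×10^7/ml saline suspension to serially halved compound dilutions lasted 1, 3 or 5 min before subculture in heart infusion bouillon, 37° C, 40–48 h.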

[11] = system: P. aeruginosa KM 97-5; experiment: as above; format: cell-based
In short: as §2

[12] = system: P. aeruginosa No. 12; experiment: as above; format: cell-based
In short: as §2

[13] = system: P. aeruginosa PAO-1; experiment: as above; format: cell-based
In short: as §2

[14] = system: S. aureus 209PJC; experiment: as above; format: cell-based
In short: as §2

[15] = system: MRSA 97-115; experiment: as above; format: cell-based, methicillin-resistant Staphylococcus aureus
In short: as §2

[16] = system: MRSA KM 97-108; experiment: as above; format: cell-based, methicillin-resistant Staphylococcus aureus
In short: as §2

[17] = system: MRSA KM 97-53; experiment: as above; format: cell-based, methicillin-resistant Staphylococcus aureus
In short: as §2

[18] = system: VRE 49; experiment: as above; format: cell-based, vancomycin-resistant enterococci
Description: As a test bacterium, the same bacteria species as those of the antibacterial activity test were used; as a medium to be used, a SCD medium (manufactured by Eiken Chemical Co., Ltd.) was used for pre-culture medium; and a heart infusion bouillon medium (manufactured by Eiken Chemical Co., Ltd.) was used as a medium for growing a live bacterium in a test solution after bactericidal treatment. One platinum loop of a test bacterium was inoculated into 20 ml of a medium, and static culture was carried out at 37° C. for 18 to 20 hours, and the cells were adjusted with a sterilized physiological saline to 1×10^7/ml, which was used as a test bacterium solution.
Then, a solution of each compound in methanol was subjected to ½ stepwise dilution with sterilized water, each 5 ml was dispensed into a test tube, 0.5 ml of the previously prepared test bacterium solution was added thereto, and the mixture was blended well. After 1 minute, 3 minutes and 5 minutes has passed, 5 μl of the test solution was collected and inoculated into 2 ml of a heart infusion bouillon medium, this was cultured at 37° C. for 40 to 48 hours, and the presence or absence of growth of a bacterium was determined. A test was performed three times, a minimum concentration at which growth of a bacterium was not recognized two or more times was adopted as a minimal bactericidal concentration (MBC value).
Numerical values in Tables represent MBC expressed in μg/ml unit.

SMILES	minimal inhibitory concentration (MIC) [1] [µg/mL]	minimal inhibitory concentration (MIC) [2] [µg/mL]	minimal inhibitory concentration (MIC) [3] [µg/mL]	minimal inhibitory concentration (MIC) [4] [µg/mL]	minimal inhibitory concentration (MIC) [5] [µg/mL]	minimal inhibitory concentration (MIC) [6] [µg/mL]	minimal inhibitory concentration (MIC) [7] [µg/mL]	minimal inhibitory concentration (MIC) [8] [µg/mL]	minimal inhibitory concentration (MIC) [9] [µg/mL]	minimal bactericidal concentration (MBC) ([10]; 1 min) [µg/mL]	minimal bactericidal concentration (MBC) ([10]; 3 min) [µg/mL]	minimal bactericidal concentration (MBC) ([10]; 5 min) [µg/mL]	minimal bactericidal concentration (MBC) ([11]; 1 min) [µg/mL]	minimal bactericidal concentration (MBC) ([11]; 3 min) [µg/mL]	minimal bactericidal concentration (MBC) ([11]; 5 min) [µg/mL]	minimal bactericidal concentration (MBC) ([12]; 1 min) [µg/mL]	minimal bactericidal concentration (MBC) ([12]; 3 min) [µg/mL]	minimal bactericidal concentration (MBC) ([12]; 5 min) [µg/mL]	minimal bactericidal concentration (MBC) ([13]; 1 min) [µg/mL]	minimal bactericidal concentration (MBC) ([13]; 3 min) [µg/mL]	other results
CC(=O)O.CCCCCCCCNC1=NC(C)(C)N=C(NCc2ccc(C)cc2)N1 [compound 58]	0.4	1.6	1.6	12.5	25	25	12.5	0.4	1.6	12.5	6.3	6.3	6.3	3.1	3.1	6.3	6.3	3.1	12.5	6.3	minimal bactericidal concentration (MBC) ([13]; 5 min): 3.1 µg/mL; minimal bactericidal concentration (MBC) ([14]; 1 min): 6.3 µg/mL; minimal bactericidal concentration (MBC) ([14]; 3 min): 3.1 µg/mL; minimal bactericidal concentration (MBC) ([14]; 5 min): 3.1 µg/mL; minimal bactericidal concentration (MBC) ([15]; 1 min): 25 µg/mL; minimal bactericidal concentration (MBC) ([15]; 3 min): 25 µg/mL; minimal bactericidal concentration (MBC) ([15]; 5 min): 12.5 µg/mL; minimal bactericidal concentration (MBC) ([16]; 1 min): 50 µg/mL; minimal bactericidal concentration (MBC) ([16]; 3 min): 50 µg/mL; minimal bactericidal concentration (MBC) ([16]; 5 min): 25 µg/mL; minimal bactericidal concentration (MBC) ([17]; 1 min): 50 µg/mL; minimal bactericidal concentration (MBC) ([17]; 3 min): 50 µg/mL; minimal bactericidal concentration (MBC) ([17]; 5 min): 25 µg/mL; minimal bactericidal concentration (MBC) ([18]; 1 min): 25 µg/mL; minimal bactericidal concentration (MBC) ([18]; 3 min): 25 µg/mL; minimal bactericidal concentration (MBC) ([18]; 5 min): 12.5 µg/mL
CC(=O)O.CCCCCCCCNC1=NC(C)(C)N=C(NCCCCCC)N1 [compound 68]	0.8	1.6	1.6	12.5	50	50	50	0.8	1.6	12.5	6.3	6.3	12.5	6.3	6.3	3.1	3.1	1.6	6.3	3.1	minimal bactericidal concentration (MBC) ([13]; 5 min): 1.6 µg/mL; minimal bactericidal concentration (MBC) ([14]; 1 min): 12.5 µg/mL; minimal bactericidal concentration (MBC) ([14]; 3 min): 6.3 µg/mL; minimal bactericidal concentration (MBC) ([14]; 5 min): 6.3 µg/mL; minimal bactericidal concentration (MBC) ([15]; 1 min): 12.5 µg/mL; minimal bactericidal concentration (MBC) ([15]; 3 min): 6.3 µg/mL; minimal bactericidal concentration (MBC) ([15]; 5 min): 6.3 µg/mL; minimal bactericidal concentration (MBC) ([16]; 1 min): 50 µg/mL; minimal bactericidal concentration (MBC) ([16]; 3 min): 25 µg/mL; minimal bactericidal concentration (MBC) ([16]; 5 min): 25 µg/mL; minimal bactericidal concentration (MBC) ([17]; 1 min): 50 µg/mL; minimal bactericidal concentration (MBC) ([17]; 3 min): 25 µg/mL; minimal bactericidal concentration (MBC) ([17]; 5 min): 25 µg/mL; minimal bactericidal concentration (MBC) ([18]; 1 min): 25 µg/mL; minimal bactericidal concentration (MBC) ([18]; 3 min): 25 µg/mL; minimal bactericidal concentration (MBC) ([18]; 5 min): 12.5 µg/mL
